From patent publication US5637262A, “Photochromic substituted naphthopyran compounds” (Transitions Optical, Inc., priority 1995, dated 1997)

What was measured:
Assay type in all cases: physicochemical
[1] = Activating wavelength by UV spectrophotometer (diethylene glycol dimethyl ether); conditions: for ACTIVATING WAVELENGTH: Table 3; for Activating Wavelength in Diethylene Glycol Dimethyl Ether: Table 1, approximately 0.5 milligram per milliliter in diethylene glycol dimethyl ether
Experimental: The products of Examples 1, 5, 8, 9, and Comparative Examples 1 and 2 were dissolved in diethylene glycol dimethyl ether. The concentrations of the resulting solutions were approximately 0.5 milligram per milliliter. Each solution was tested in a UV spectrophotometer to determine its activating wavelength. The activating wavelength reported in Table 1 is the wavelength at which activation of the photochromic compound occurs in diethylene glycol dimethyl ether. That value corresponds to the absorption peak in the ultraviolet region that is closest to the visible region or the threshold range, i.e., 390 to 410 nanometers, if there is only one absorption peak in this region. If there is more than one absorption peak, the activating wavelength corresponds most closely to the absorption peak that immediately proceeds the peak of longer wavelength in the ultraviolet region or the threshold range.

[2] = Solar response / loss in response on optical bench with 320 nm and 360 nm filters (Part C); conditions: for Δ OD @ 320 nm / Δ OD @ 360 nm: 15 minute exposure; for Δ OD @ 320 nm: 320 nanometer filter; for Δ OD @ 360 nm: 360 nanometer filter; for % LOSS IN RESPONSE: (OD 320 nm - OD 360 nm)/OD 320 nm x 100; for BLEACH RATE T 1/2: polymeric matrix prepared from a diethylene glycol bis(allyl carbonate) composition
Experimental: (§1) The test samples were evaluated for photochromic response rates on an optical bench. The samples were illuminated by a 150 watt Xenon lamp fitted with a copper sulfate bath, a 320 nanometer filter, and a neutral density filter at an intensity of about one sun. A second beam of light provided by a filtered tungsten lamp arranged to pass through the sample area exposed by the UV source was used to monitor changes in transmission of the sample over different wavelength ranges in the visible region of the spectrum. The intensity of the monitoring beam after passing through the sample was measured by means of an IL-1500 radiometer equipped with a silicon detector head and matching filters.
The Δ OD/Min, which represents the sensitivity of the photochromic compound's response to UV light, was measured using photopic filters on the silicon detector. The response of the filtered detector approximated the luminosity curve. The Δ OD was measured over the first five (5) seconds of UV exposure, then expressed on a per minute basis. The saturation optical density (OD) was taken under identical conditions as the Δ OD/Min, except UV exposure was continued for 20 minutes for the examples in Table 2. The Bleach Rate T 1/2 is the time interval in seconds for the absorbance of the activated form of the naphthopyran in the test polymers to reach one half the highest absorbance at room temperature (72° F., 22.2° C.) after removal of the source of activating light.
The solar response for naphthopyrans of Example 7 and Comparative Examples 3 and 4 was measured using the optical bench described in Part B. The naphthopyrans were imbibed by thermal transfer into test squares of a polymeric matrix prepared from a diethylene glycol bis(allyl carbonate) composition and two optical density measurements were made after 15 minute exposures to a UV source first fitted with a 320 nanometer filter and then fitted with a 360 nanometer filter. The loss in response was calculated by subtracting the optical density obtained with the 360 nanometer filter from the optical density obtained with the 320 nanometer filter and then dividing this figure by the optical density obtained with the 320 nanometer filter and multiplying by 100.
The loss in response measurement, expressed as a percent, simulates the difference between the photochromic response of the compounds exposed to full mid-day sun and to low light conditions, such as early day and late in the day when the lower wavelength components of the UV spectrum are attenuated.

[3] = Photochromic response on optical bench in homopolymer of diethylene glycol bis(allyl carbonate) test squares (Part B); conditions: for BLEACH RATE T 1/2: Table 2, room temperature (72° F., 22.2° C.), homopolymer of diethylene glycol bis(allyl carbonate); for Δ OD @ SATURATION: UV exposure 20 minutes; for Δ OD @ SATURATION / Δ OD/Min SENSITIVITY: 320 nanometer filter, homopolymer test squares; for Δ OD/Min SENSITIVITY: first five (5) seconds of UV exposure, per minute basis
Experimental: Each naphthopyran was dissolved into toluene solvent to form a 4 weight percent solution of the compound. A piece of No. 4 Whatman filter paper was saturated with the naphthopyran solution and allowed to air dry. The dried filter paper was placed on one side of the polymer test square, which measured 1/8 inch (0.3 centimeter)×2 inch (5.1 centimeters)×2 inch (5.1 centimeters). A piece of untreated filter paper was placed on the other side of the polymer test square and the resulting sandwich placed between two plates of flat aluminum metal plates. […] The imbibed test squares were washed with acetone after removal from the oven.
as §1
The Δ OD/Min, which represents the sensitivity of the photochromic compound's response to UV light, was measured using photopic filters on the silicon detector. The response of the filtered detector approximated the luminosity curve. The Δ OD was measured over the first five (5) seconds of UV exposure, then expressed on a per minute basis. The saturation optical density (OD) was taken under identical conditions as the Δ OD/Min, except UV exposure was continued for 20 minutes for the examples in Table 2.

SMILES	ACTIVATING WAVELENGTH [1] [nm]	Δ OD @ 320 nm [2]	Δ OD @ 360 nm [2]	% LOSS IN RESPONSE [2] [%]	BLEACH RATE T 1/2 ([2]; Table 3) [min]	Activating Wavelength in Diethylene Glycol Dimethyl Ether [1] [nm]	BLEACH RATE T 1/2 [3] [min]	Δ OD @ SATURATION [3]	Δ OD/Min SENSITIVITY [3]	other results
COC(=O)c1cc2c3c(ccc2cc1OC)OC(c1ccc(OC)cc1)(c1ccccc1F)C=C3 (stereo not drawn) [Example 7, 3-(2-fluorophenyl)-3-(4-methoxyphenyl)-8-methoxy-9-carbomethoxy-3H-naphtho[2,1-b]pyran]	384	0.187	0.184	2	3.27	–	–	–	–	Bleach Rate T 1/2, i.e., rate of fade (in words) ([2]; Table 3): more acceptable Bleach Rate T 1/2; Reduction in optical density, 360 nm vs 320 nm cutoff filter (in words) ([2]; compared to comparative examples 3 and 4): less reduction in optical density
COc1ccc2c3c(ccc2c1C)OC(c1ccccc1)(c1ccccc1)C=C3 [Example 9, 3,3-diphenyl-7-methyl-8-methoxy-3H-naphtho[2,1-b]pyran]	–	–	–	–	–	369	–	–	–	–
C1=CC(c2ccccc2)(c2ccccc2)Oc2ccc3ccccc3c21 [compound 2, 3,3-diphenyl-3H-naphtho[2,1-b]pyran]	–	–	–	–	–	348	0.75	0.36	0.87 Δ OD/Min	–
CCCOC(=O)c1cc2c3c(ccc2cc1O)OC(c1ccccc1)(c1ccccc1)C=C3 [Example 1, 3,3-diphenyl-8-hydroxy-9-carbopropoxy-3H-naphtho[2,1-b]pyran]	–	–	–	–	–	408	–	–	–	–
COc1ccc(C2(c3ccc(OC)cc3OC)C=Cc3c(ccc4ccccc34)O2)cc1 (stereo not drawn) [compound 4, 3-(2,4-dimethoxyphenyl)-3-(4-methoxyphenyl)-3H-naphtho[2,1-b]pyran]	348	0.260	0.196	25	5.63	–	–	–	–	–
CCCOC(=O)c1cc2c3c(ccc2cc1OC)OC(c1ccccc1)(c1ccccc1)C=C3 [Example 5, 3,3-diphenyl-8-methoxy-9-carbopropoxy-3H-naphtho[2,1-b]pyran]	–	–	–	–	–	382	1.33	0.55	1.4 Δ OD/Min	Sensitivity (in words) ([3]; compared to comparative examples 1 and 2): increased sensitivity as compared to the compounds of comparative examples 1 and 2
COC(=O)c1cc2c3c(ccc2cc1OC(C)=O)OC(c1ccc(OC)cc1)(c1ccc(OC)cc1OC)C=C3 (stereo not drawn) [Example 8, 3-(2,4-dimethoxy-phenyl)-3-(4-methoxyphenyl)-8-acetoxy-9-carbomethoxy-3H-naphtho-[2,1-b]pyran]	–	–	–	–	–	376	–	–	–	–
COc1ccc(C2(c3ccccc3F)C=Cc3c(ccc4cc(OC)ccc34)O2)cc1 (stereo not drawn) [Comparative Example 3, 3-(2-fluorophenyl)-3-(4-methoxyphenyl)-8-methoxy-3H-naphtho[2,1-b]pyran]	359	0.266	0.249	6	5.93	–	–	–	–	–
COc1ccc2c3c(ccc2c1)OC(c1ccccc1)(c1ccccc1)C=C3 [compound 1, 3,3-diphenyl-8-methoxy-3H-naphtho [2,1-b]pyran]	–	–	–	–	–	359	1.45	0.73	1.25 Δ OD/Min	–
